In US20210388455A1 (priority 2020, published 2021):
Read-outs that look alike come from different tables or passages of the source.

What was measured:
[1] = test system: SARS-CoV-2; conditions: known values of FDA approved drugs; cited from earlier work
[2] = molecular target: ACE2 binding to SARS-CoV-2 S1-RBD (Homo sapiens, UniProt Q9BYF1); test: ELISA of ACE2/S1-RBD inhibitory activity; parameters: species or system human ACE2 / SARS-CoV-2; conditions: recombinant 2019-nCoV S1-RBD coated plate, read-out: IC50 inhibiting ACE2 binding to SARS-CoV-2 S1-RBD
[3] = test system: SARS-CoV-2; format: cell-based
[4] = test system: VeroE6-EGFP cells; conditions: no virus

Sequence of ACE2 binding to SARS-CoV-2 S1-RBD (Q9BYF1 18-740): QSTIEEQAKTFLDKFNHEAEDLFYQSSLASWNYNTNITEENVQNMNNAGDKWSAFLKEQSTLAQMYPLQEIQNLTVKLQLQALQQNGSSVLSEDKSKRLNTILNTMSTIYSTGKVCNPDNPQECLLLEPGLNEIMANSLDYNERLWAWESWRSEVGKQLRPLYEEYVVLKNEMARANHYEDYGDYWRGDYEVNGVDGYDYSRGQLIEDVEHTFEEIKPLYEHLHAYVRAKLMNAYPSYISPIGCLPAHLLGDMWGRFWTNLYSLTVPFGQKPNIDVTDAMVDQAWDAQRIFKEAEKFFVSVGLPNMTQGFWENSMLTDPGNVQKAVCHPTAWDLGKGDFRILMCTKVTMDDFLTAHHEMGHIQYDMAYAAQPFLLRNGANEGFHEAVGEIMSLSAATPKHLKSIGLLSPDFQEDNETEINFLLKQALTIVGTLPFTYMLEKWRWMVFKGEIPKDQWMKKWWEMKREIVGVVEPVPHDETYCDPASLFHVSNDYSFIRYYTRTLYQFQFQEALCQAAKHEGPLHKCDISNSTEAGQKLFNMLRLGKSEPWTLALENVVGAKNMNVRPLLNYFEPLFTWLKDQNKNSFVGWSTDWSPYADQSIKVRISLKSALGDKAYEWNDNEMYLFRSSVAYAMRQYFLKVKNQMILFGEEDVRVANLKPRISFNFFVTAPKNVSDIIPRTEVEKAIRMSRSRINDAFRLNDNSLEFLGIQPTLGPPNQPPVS

Compound	EC50 [1]	IC50 [2]	EC50 [3]	CC50 [4]
CC(C)(C)NC(=O)[C@@H]1CN(Cc2cccnc2)CCN1C[C@@H](O)C[C@@H](Cc1ccccc1)C(=O)N[C@H]1c2ccccc2C[C@H]1O [Indinavir]	59.1 µM			
Nc1nc2c(ncn2CCC(CO)CO)c(=O)[nH]1 [Penciclovir]	96 µM			
Kobophenol A		1.81 ± 0.04 µM	71.6 µM	> 100 µM
